1 compound from ChEMBL document CHEMBL1921683, “Radiosynthesis of three [11C]ureido-substituted benzenesulfonamides as PET probes for carbonic anhydrase IX in tumors” (Bioorg Med Chem Lett, 2011) can be followed below.

This data set is described as follows: Chemical stability of the compound assessed as decomposition of the compound. It counts as physicochemical.

As to `N#Cc1ccccc1N[11C](=O)Nc1ccc(S(N)(=O)=O)cc1`, the Stability entry is “Unstable”.
